Source: PubChem BioAssay AID1918941 (Molecular Pharmacology Branch, DTP, NCI, 2023)

Tested on: SW 1271 complex spheroids, viability
Assay: Anticancer human tumor SW 1271 cell line growth inhibition [LSD1];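 note: spheroids exposed to agents for 7 days before luminescence read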;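 for viability, T/C: 100% = DMSO vehicle control viability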
Settings: for IC50: curve of first compound; for viability, T/C: stronger effect = lower value
Method in brief: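 Drug combinations with the LSD1 inhibitor iadademstat tested on tumor cells co-cultured as spheroids with endothelial cells and mesenchymal stem cells. Concentrations descended in half-log increments from clinical Cmax or 10 microM.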

[1] = second compound 0.1 µM, first compound 0.0316 µM
[2] = second compound 0.1 µM, first compound 0.1 µM
[3] = second compound 0.1 µM, first compound 0.316 µM
[4] = second compound 0.1 µM, first compound 1 µM
[5] = second compound 0.1 µM, first compound 3.16 µM
[6] = second compound 0.1 µM, first compound 10 µM
[7] = second compound 0.316 µM, first compound 0.0316 µM
[8] = second compound 0.316 µM, first compound 0.1 µM
[9] = second compound 0.316 µM, first compound 0.316 µM
[10] = second compound 0.316 µM, first compound 1 µM
[11] = second compound 0.316 µM, first compound 3.16 µM
[12] = second compound 0.316 µM, first compound 10 µM
[13] = second compound 1 µM, first compound 0.0316 µM
[14] = second compound 1 µM, first compound 0.1 µM
[15] = second compound 1 µM, first compound 0.316 µM
[16] = second compound 1 µM, first compound 1 µM
[17] = second compound 1 µM, first compound 3.16 µM
[18] = second compound 1 µM, first compound 10 µM
[19] = second compound 3.16 µM, first compound 0.0316 µM
[20] = second compound 3.16 µM, first compound 0.1 µM
[21] = second compound 3.16 µM, first compound 0.316 µM
[22] = second compound 3.16 µM, first compound 1 µM
[23] = second compound 3.16 µM, first compound 3.16 µM
[24] = second compound 3.16 µM, first compound 10 µM
[25] = second compound 10 µM, first compound 0.0316 µM
[26] = second compound 10 µM, first compound 0.1 µM
[27] = second compound 10 µM, first compound 0.316 µM
[28] = second compound 10 µM, first compound 1 µM
[29] = second compound 10 µM, first compound 3.16 µM
[30] = second compound 10 µM, first compound 10 µM
[31] = second compound 0.1 µM, first compound 0.00949 µM
[32] = second compound 0.1 µM, first compound 0.03 µM
[33] = second compound 0.1 µM, first compound 0.0949 µM
[34] = second compound 0.1 µM, first compound 0.3 µM
[35] = second compound 0.316 µM, first compound 0.00949 µM
[36] = second compound 0.316 µM, first compound 0.03 µM
[37] = second compound 0.316 µM, first compound 0.0949 µM
[38] = second compound 0.316 µM, first compound 0.3 µM
[39] = second compound 1 µM, first compound 0.00949 µM
[40] = second compound 1 µM, first compound 0.03 µM
[41] = second compound 1 µM, first compound 0.0949 µM
[42] = second compound 1 µM, first compound 0.3 µM
[43] = second compound 3.16 µM, first compound 0.00949 µM
[44] = second compound 3.16 µM, first compound 0.03 µM
[45] = second compound 3.16 µM, first compound 0.0949 µM
[46] = second compound 3.16 µM, first compound 0.3 µM
[47] = second compound 10 µM, first compound 0.00949 µM
[48] = second compound 10 µM, first compound 0.03 µM
[49] = second compound 10 µM, first compound 0.0949 µM
[50] = second compound 10 µM, first compound 0.3 µM

## CC1(C)CCC(CN2CCN(c3ccc(C(=O)NS(=O)(=O)c4ccc(NCC5CCOCC5)c([N+](=O)[O-])c4)c(Oc4cnc5[nH]ccc5c4)c3)CC2)=C(c2ccc(Cl)cc2)C1 + NC1CC1c1ccc(-c2cccc(O)c2)cc1
Second compound 0.1 µM
  IC50: 2550 nM
Second compound 0.316 µM
  IC50: 2970 nM
Second compound 1 µM
  IC50: 2490 nM
Second compound 3.16 µM
  IC50: 1910 nM
Second compound 10 µM
  IC50: 2100 nM
[1]
  viability, T/C: 80.6%
[2]
  viability, T/C: 84.3%
[3]
  viability, T/C: 91.6%
[4]
  viability, T/C: 78.3%
[5]
  viability, T/C: 43.4%
[6]
  viability, T/C: 1.33%
[7]
  viability, T/C: 85.8%
[8]
  viability, T/C: 95%
[9]
  viability, T/C: 91.8%
[10]
  viability, T/C: 85.5%
[11]
  viability, T/C: 47.9%
[12]
  viability, T/C: 1.12%
[13]
  viability, T/C: 91.3%
[14]
  viability, T/C: 78.7%
[15]
  viability, T/C: 82.4%
[16]
  viability, T/C: 80.8%
[17]
  viability, T/C: 42%
[18]
  viability, T/C: 1.39%
[19]
  viability, T/C: 78.4%
[20]
  viability, T/C: 81.7%
[21]
  viability, T/C: 79%
[22]
  viability, T/C: 66.6%
[23]
  viability, T/C: 36.7%
[24]
  viability, T/C: 1.44%
[25]
  viability, T/C: 73.3%
[26]
  viability, T/C: 65.6%
[27]
  viability, T/C: 64.1%
[28]
  viability, T/C: 69.8%
[29]
  viability, T/C: 40%
[30]
  viability, T/C: 0.32%

## CC1COCCN1c1cc(C2(S(C)(=N)=O)CC2)nc(-c2ccnc3[nH]ccc23)n1 (stereo not given) + NC1CC1c1ccc(-c2cccc(O)c2)cc1
Second compound 0.1 µM
  IC50: 1870 nM
Second compound 0.316 µM
  IC50: 2600 nM
Second compound 1 µM
  IC50: > 10000 nM
Second compound 3.16 µM
  IC50: 1360 nM
Second compound 10 µM
  IC50: 954 nM
[1]
  viability, T/C: 84.8%
[2]
  viability, T/C: 79.5%
[3]
  viability, T/C: 65.5%
[4]
  viability, T/C: 49%
[5]
  viability, T/C: 53.7%
[6]
  viability, T/C: 45.6%
[7]
  viability, T/C: 81.3%
[8]
  viability, T/C: 82.1%
[9]
  viability, T/C: 65%
[10]
  viability, T/C: 57.1%
[11]
  viability, T/C: 46%
[12]
  viability, T/C: 49.4%
[13]
  viability, T/C: 75%
[14]
  viability, T/C: 95.2%
[15]
  viability, T/C: 70.1%
[16]
  viability, T/C: 56.7%
[17]
  viability, T/C: 51.6%
[18]
  viability, T/C: 47.1%
[19]
  viability, T/C: 70.2%
[20]
  viability, T/C: 69.9%
[21]
  viability, T/C: 72.6%
[22]
  viability, T/C: 51.7%
[23]
  viability, T/C: 46.7%
[24]
  viability, T/C: 43.8%
[25]
  viability, T/C: 48.1%
[26]
  viability, T/C: 61.1%
[27]
  viability, T/C: 59.2%
[28]
  viability, T/C: 49.7%
[29]
  viability, T/C: 42%
[30]
  viability, T/C: 46.2%

## CCN(c1cc(-c2ccc(CN3CCOCC3)cc2)cc(C(=O)NCc2c(C)cc(C)[nH]c2=O)c1C)C1CCOCC1 + NC1CC1c1ccc(-c2cccc(O)c2)cc1
Second compound 0.1 µM
  IC50: > 3000 nM
Second compound 0.316 µM
  IC50: > 3000 nM
Second compound 1 µM
  IC50: > 3000 nM
Second compound 3.16 µM
  IC50: > 3000 nM
Second compound 10 µM
  IC50: > 3000 nM
[31]
  viability, T/C: 83.2%
[32]
  viability, T/C: 82.9%
[33]
  viability, T/C: 86%
[34]
  viability, T/C: 72.4%
Second compound 0.1 µM, first compound 0.949 µM
  viability, T/C: 68.2%
Second compound 0.1 µM, first compound 3 µM
  viability, T/C: 60%
[35]
  viability, T/C: 83.9%
[36]
  viability, T/C: 82.2%
[37]
  viability, T/C: 74.6%
[38]
  viability, T/C: 72.4%
Second compound 0.316 µM, first compound 0.949 µM
  viability, T/C: 71.3%
Second compound 0.316 µM, first compound 3 µM
  viability, T/C: 57.3%
[39]
  viability, T/C: 82.1%
[40]
  viability, T/C: 78.4%
[41]
  viability, T/C: 83.8%
[42]
  viability, T/C: 64.8%
Second compound 1 µM, first compound 0.949 µM
  viability, T/C: 59.4%
Second compound 1 µM, first compound 3 µM
  viability, T/C: 56.3%
[43]
  viability, T/C: 80.6%
[44]
  viability, T/C: 85.1%
[45]
  viability, T/C: 78.1%
[46]
  viability, T/C: 65.7%
Second compound 3.16 µM, first compound 0.949 µM
  viability, T/C: 63.7%
Second compound 3.16 µM, first compound 3 µM
  viability, T/C: 56.2%
[47]
  viability, T/C: 66.9%
[48]
  viability, T/C: 66.8%
[49]
  viability, T/C: 64.8%
[50]
  viability, T/C: 51.8%
Second compound 10 µM, first compound 0.949 µM
  viability, T/C: 58.7%
Second compound 10 µM, first compound 3 µM
  viability, T/C: 58.2%

## Cn1ncnc1C1c2n[nH]c(=O)c3cc(F)cc(c23)NC1c1ccc(F)cc1 (stereo not given) + NC1CC1c1ccc(-c2cccc(O)c2)cc1
Second compound 0.1 µM
  IC50: > 100 nM
Second compound 0.316 µM
  IC50: > 100 nM
Second compound 1 µM
  IC50: > 100 nM
Second compound 3.16 µM
  IC50: > 100 nM
Second compound 10 µM
  IC50: 65.5 nM
Second compound 0.1 µM, first compound 0.000316 µM
  viability, T/C: 97.8%
Second compound 0.1 µM, first compound 0.001 µM
  viability, T/C: 80.9%
Second compound 0.1 µM, first compound 0.00316 µM
  viability, T/C: 72.3%
Second compound 0.1 µM, first compound 0.01 µM
  viability, T/C: 85.8%
[1]
  viability, T/C: 71.3%
[2]
  viability, T/C: 66.7%
Second compound 0.316 µM, first compound 0.000316 µM
  viability, T/C: 77.6%
Second compound 0.316 µM, first compound 0.001 µM
  viability, T/C: 72.6%
Second compound 0.316 µM, first compound 0.00316 µM
  viability, T/C: 67.5%
Second compound 0.316 µM, first compound 0.01 µM
  viability, T/C: 68.9%
[7]
  viability, T/C: 71%
[8]
  viability, T/C: 77%
Second compound 1 µM, first compound 0.000316 µM
  viability, T/C: 78.1%
Second compound 1 µM, first compound 0.001 µM
  viability, T/C: 75.7%
Second compound 1 µM, first compound 0.00316 µM
  viability, T/C: 72.8%
Second compound 1 µM, first compound 0.01 µM
  viability, T/C: 67.5%
[13]
  viability, T/C: 66.1%
[14]
  viability, T/C: 82.7%
Second compound 3.16 µM, first compound 0.000316 µM
  viability, T/C: 75.8%
Second compound 3.16 µM, first compound 0.001 µM
  viability, T/C: 85.5%
Second compound 3.16 µM, first compound 0.00316 µM
  viability, T/C: 78.9%
Second compound 3.16 µM, first compound 0.01 µM
  viability, T/C: 57.3%
[19]
  viability, T/C: 59.2%
[20]
  viability, T/C: 57.9%
Second compound 10 µM, first compound 0.000316 µM
  viability, T/C: 64.7%
Second compound 10 µM, first compound 0.001 µM
  viability, T/C: 66.7%
Second compound 10 µM, first compound 0.00316 µM
  viability, T/C: 67.2%
Second compound 10 µM, first compound 0.01 µM
  viability, T/C: 61.3%
[25]
  viability, T/C: 48.6%
[26]
  viability, T/C: 49.7%

## Nc1ncn(C2CC(O)C(CO)S2)c(=O)n1 (stereo not given) + NC1CC1c1ccc(-c2cccc(O)c2)cc1
Second compound 0.1 µM
  IC50: > 300 nM
Second compound 0.316 µM
  IC50: > 300 nM
Second compound 1 µM
  IC50: > 300 nM
Second compound 3.16 µM
  IC50: > 300 nM
Second compound 10 µM
  IC50: > 300 nM
Second compound 0.1 µM, first compound 0.000949 µM
  viability, T/C: 90.1%
Second compound 0.1 µM, first compound 0.003 µM
  viability, T/C: 91.7%
[31]
  viability, T/C: 82%
[32]
  viability, T/C: 76.2%
[33]
  viability, T/C: 82%
[34]
  viability, T/C: 63%
Second compound 0.316 µM, first compound 0.000949 µM
  viability, T/C: 79.2%
Second compound 0.316 µM, first compound 0.003 µM
  viability, T/C: 83.6%
[35]
  viability, T/C: 86.3%
[36]
  viability, T/C: 67.9%
[37]
  viability, T/C: 53.5%
[38]
  viability, T/C: 57.8%
Second compound 1 µM, first compound 0.000949 µM
  viability, T/C: 85.3%
Second compound 1 µM, first compound 0.003 µM
  viability, T/C: 73.3%
[39]
  viability, T/C: 75.6%
[40]
  viability, T/C: 65.3%
[41]
  viability, T/C: 64.4%
[42]
  viability, T/C: 67.5%
Second compound 3.16 µM, first compound 0.000949 µM
  viability, T/C: 70.5%
Second compound 3.16 µM, first compound 0.003 µM
  viability, T/C: 79.4%
[43]
  viability, T/C: 79.1%
[44]
  viability, T/C: 62.3%
[45]
  viability, T/C: 60.8%
[46]
  viability, T/C: 58.8%
Second compound 10 µM, first compound 0.000949 µM
  viability, T/C: 66.4%
Second compound 10 µM, first compound 0.003 µM
  viability, T/C: 65.1%
[47]
  viability, T/C: 60.9%
[48]
  viability, T/C: 66.5%
[49]
  viability, T/C: 62.7%
[50]
  viability, T/C: 58.9%
